From patent US7601512B2, “Methods for identifying inhibitors of the 20S and 26S proteasome” (Bayer CropScience AG, priority 2002, dated 2009)
Converted amounts (≈) assume the structure as drawn. *1 amine or outer side, *2 acyl side, *3 side chain or, on linkers, in order; H or OH if unused. Where a SMILES comes first, the peptide text is derived from it. [ ]: non-standard residue; d: D form. The star is where a group is joined. AMC = Cc1cc(=O)oc2cc(N*)ccc12; Suc = O=C(CCC(=O)[*:2])[*:1]; Nva = CCC[C@H](N)C(=O)O; Cbz = O=C(OCc1ccccc1)*

Experiments:
[1] = tested on: Pseudocercosporella herpotrichoides (PSDCHW); test: agar diffusion assay (fungicidal action, MIC); format: cell-based; conditions: PSDCHR
[2] = tested on: Fusarium culmorum (FUSACU); test: agar diffusion assay (fungicidal action, MIC); format: cell-based
[3] = tested on: Rhizoctonia solani (RHIZSO); test: agar diffusion assay (fungicidal action, MIC); format: cell-based
[4] = tested on: Botrytis cinerea (BOTRCI); test: agar diffusion assay (fungicidal action, MIC); format: cell-based
[5] = tested on: Ustilago maydis (USTIMA); test: agar diffusion assay (fungicidal action, MIC); format: cell-based
[6] = tested on: Pyricularia orycae (PYRIOR); test: microbe, parasite or virus in culture; format: cell-based
[7] = cited from earlier work
[8] = tested on: 20S proteasome; conditions: read-out: KM for Suc-LLVY-AMC; approx. 70 ng proteasomes per reaction, Lineweaver-Burke
Procedure: A constant amount of proteasomes (approx. 70 ng per reaction) was incubated with increasing amounts of substrate and the increase in fluorescence was then determined over a period of 5 minutes. The slopes of the curve (dotted line) were determined by calculating trend lines.

[9] = tested on: S. cerevisiae; conditions: 30° C., Lee and Goldberg (1998); cited from earlier work
[10] = tested on: 20S proteasome; test: 20S proteasome activity/inhibition assay with Suc-LLVY-AMC (AMC fluorescence); format: biochemical, yeast; Ustilago maydis; conditions: 40 nM MG-132, FIGS. 1 and 2
Procedure: FIG. 1 is an activity assay for the 20S proteasome from yeast. The substrate used for the chymotryptic activity was Suc-LLVY-AMC (SEQ. ID. NO. 1). Liberation of AMC was determined fluorometrically as a function of time. The proteasome activity was determined in a 1:100 dilution of a yeast extract in the presence of 40 nM MG132 and in the absence of MG-132. As a negative control, the reaction was carried out without enzyme (buffer).
FIG. 2 is an activity assay for the 20S proteasome from Ustilago maydis. The substrate used for the chymotryptic activity was Suc-LLVY-AMC (SEQ. ID. NO. 1). Liberation of AMC was determined fluorometrically as a function of time. The proteasome activity was determined in a 1:100 and 1:20 dilution of a U. maydis preparation. […]
The proteolytic activity measurable in this way can be influenced by an inhibitor such as, for example, MG-132, resulting in a lower relative fluorescence being observed (FIGS. 1 and 2). […]
The activity and inhibition assay which makes use of the known inhibitor MG-132 from Calbiochem and which is intended to check the usability of the method of the invention was carried out in 384-well MTPs (microtitre plates with 384 wells). […] The preliminary measurement (fluorescence) was carried out at 360/465 nm (35 nm bandwidth). […] The fluorescence was measured again at 360/465 nm (35 nm bandwidth).

CCC[C@@H](C=O)NC(=O)[C@H](CC(C)C)NC(=O)[C@H](CC(C)C)NC(=O)OCc1ccccc1 [Example 1, Carbobenzoxy-L-leucyl-L-leucyl-L-norvalinal] (Cbz-Leu-Leu-[Nva]-aldehyde)
MIC ([1]; Oculimacula yallundae, read-out: MIC (minimum inhibitory concentration)): > 1000 µg/mL | MIC ([2]; Fusarium culmorum, FUSACU, agar diffusion assay, read-out: MIC (minimum inhibitory concentration)): > 1000 µg/mL | MIC ([3]; Rhizoctonia solani, read-out: MIC (minimum inhibitory concentration)): > 1000 µg/mL | MIC ([4]; Botrytis cinerea, read-out: MIC (minimum inhibitory concentration)): 58.6 µg/mL (≈ 127 µM) | MIC ([5]; Mycosarcoma maydis, read-out: MIC (minimum inhibitory concentration)): 750 µg/mL (≈ 1620 µM) | MIC ([6]; Pyricularia, read-out: MIC (minimum inhibitory concentration)): 2 µg/mL (≈ 4.33 µM)

Aprotinin [Example 2]
MIC (minimum inhibitory concentration) [1]: >1000 ppm | MIC (minimum inhibitory concentration) [2]: >1000 ppm | MIC (minimum inhibitory concentration) [3]: >1000 ppm | MIC (minimum inhibitory concentration) [4]: 339.3 ppm | MIC (minimum inhibitory concentration) [5]: 750 ppm | MIC (minimum inhibitory concentration) ([6]; PYRIOR, agar diffusion assay): 18.0 ppm

Suc-Leu-Leu-Val-Tyr-AMC (Suc-LLVY-{AMC}; SMILES Cc1cc(=O)oc2cc(NC(=O)[C@H](Cc3ccc(O)cc3)NC(=O)[C@@H](NC(=O)[C@H](CC(C)C)NC(=O)[C@H](CC(C)C)NC(=O)CCC(=O)O)C(C)C)ccc12) [Suc-LLVY-AMC]
solubility in DMSO [7]: 50 mg/mL | Km [8]: 5 µM

CC(C)C[C@@H](C=O)NC(=O)[C@H](CC(C)C)NC(=O)[C@H](CC(C)C)NC(=O)OCc1ccccc1 [MG-132, Z-Leu-Leu-Leu-CHO] (Cbz-Leu-Leu-Leu-aldehyde)
effect on the growth rate of yeast cells [9]: only a minimum effect, if any | relative fluorescence (proteasome activity) in presence of inhibitor [10]: markedly reduces the relative fluorescence
